17 molecules from US10947252B2, “Inhibitors of KEAP1-Nrf2 protein-protein interaction” (Janssen Pharmaceutica NV, priority 2018, dated 2021) can be followed below.

Where only a bound is given, the exact number is not on record here.

For experiment [1], the target named is Kelch domain of human KEAP1 (321-624 aa) (Homo sapiens (Human), UniProt Q14145). Briefly: KEAP1 KELCH ThermoFluor binding assay.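 Further: Ligand-induced melting temperature shift of E. coli-expressed KEAP1 Kelch protein, Kd estimated from concentration-response curves of ΔTm.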 To be noted: KEAP Kelch […], 1,8-ANS, pH 7.0, average of results obtained, read-out: Tf Kd. (In DSF a fluorescence change marks the thermal transition of the protein.)
Experiment [2] concerns Glo-Response ARE-luc2P HEK293 cell line. Briefly: ARE luciferase reporter cell-based assay.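 Further: luciferase signal tracks Nrf2 activation of the ARE once compounds disrupt KEAP1-Nrf2 binding, read with One-Glo reagent, DMSO serving as low control.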 To be noted: Homo sapiens, HEK293, 24 h, average of results obtained. (In general: A reporter such as luciferase makes a cellular process visible.)

Sequence of Kelch domain of human KEAP1 (321-624 aa) (Q14145 321-624): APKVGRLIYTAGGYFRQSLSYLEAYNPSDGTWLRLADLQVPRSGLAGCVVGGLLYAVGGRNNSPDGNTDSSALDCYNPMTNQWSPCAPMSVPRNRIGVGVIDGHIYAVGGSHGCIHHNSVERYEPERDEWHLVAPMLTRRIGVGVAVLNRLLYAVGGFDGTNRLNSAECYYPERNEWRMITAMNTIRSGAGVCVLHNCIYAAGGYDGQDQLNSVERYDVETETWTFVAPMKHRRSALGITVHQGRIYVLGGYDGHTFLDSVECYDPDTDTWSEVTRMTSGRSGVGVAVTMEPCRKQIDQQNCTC

Take `CCn1nnc2c(C)c([C@@H](c3cnc(C)c(CN4CC5(CCOCC5)Oc5ncc(C)cc5S4(=O)=O)c3)C(C)(C)C(=O)O)ccc21` (single isomer, unassigned) [Example 62, (*S)-3-(1-Ethyl-4-methyl-1H-benzo[d][1,2,3]triazol-5-yl)-2,2-dimethyl-3-(6-methyl-5-((8′-methyl-1′,1′-dioxido-2,3,5,6-tetrahydrospiro[pyran-4,4′-pyrido[2,3-b][1,4,5]oxathiazepin]-2′(3′H)-yl)methyl)pyridin-3-yl)propanoic Acid]: the dissociation constant Kd (usually a measure of binding affinity in units of concentration) in experiment [1] was < 1 nM. A half-maximal effect in experiment [2] (EC50) was put at 19.2 nM.
For `Cc1cnc2c(c1)S(=O)(=O)N(Cc1cc([C@H](CC(=O)O)c3ccn4c(C(F)(F)F)nnc4c3C)ccc1Cl)CC1CCCCN21` (single isomer, unassigned) [Example 91, (*S)-3-(4-Chloro-3-(((*S)-3-methyl-5,5-dioxido-7,7a,8,9,10,11-hexahydro-6H-dipyrido[2,1-d:2′,3′-f][1,2,5]thiadiazepin-6-yl)methyl)phenyl)-3-(8-methyl-3-(trifluoromethyl)-[1,2,4]triazolo[4,3-a]pyridine-7-yl)propanoic Acid] the same measures were < 1 nM and 14.4 nM.
For the molecule `Cc1cnc([C@@H](c2ccn3c(C(F)(F)F)nnc3c2C)C(C)(C)C(=O)O)cc1CN1CC2(CC2)Oc2nc(OCCN3CCCC3)c(C)cc2S1(=O)=O` (single isomer, unassigned) [Example 590, (*S)-2,2-Dimethyl-3-(8-methyl-3-(trifluoromethyl)-[1,2,4]triazolo[4,3-a]pyridin-7-yl)-3-(5-methyl-4-((8′-methyl-1′,1′-dioxido-7′-(2-(pyrrolidin-1-yl)ethoxy)spiro[cyclopropane-1,4′-pyrido[2,3-b][1,4,5]oxathiazepin]-2′(3′H)-yl)methyl)pyridin-2-yl)propanoic Acid], in experiment [1], the equilibrium dissociation constant (Kd) is < 1 nM. Besides, the EC50 (usually the concentration at which the effect is half-maximal) in experiment [2] came out at 33.2 nM.
Take `Cc1cnc2c(c1)S(=O)(=O)N(Cc1cc([C@H](c3ccn4c(C(F)(F)F)nnc4c3C)C(C)(C)C(=O)O)ccc1C)CC1(CCOCC1)O2` (single isomer, unassigned) [Example 19, (*R)-2,2-Dimethyl-3-(4-methyl-3-((8′-methyl-1′,1′-dioxido-2,3,5,6-tetrahydrospiro[pyran-4,4′-pyrido[2,3-b][1,4,5]oxathiazepin]-2′(3′H)-yl)methyl)phenyl)-3-(8-methyl-3-(trifluoromethyl)-[1,2,4]triazolo[4,3-a]pyridin-7-yl)propanoic Acid]: the Kd in experiment [1] is 1280 nM. Further, in experiment [2], the EC50 is 789 nM.
For `Cc1ccc([C@H](c2ccn3c(C(F)(F)F)nnc3c2C)C(C)(C)C(=O)O)cc1CN1C[C@@H]2CCCCN2c2ncc(C#N)cc2S1(=O)=O` (single isomer, unassigned) [Example 425, (*R)-3-(3-(((*S)-3-cyano-5,5-dioxido-7,7a,8,9,10,11-hexahydro-6H-dipyrido[2,1-d:2′,3′-f][1,2,5]thiadiazepin-6-yl)methyl)-4-methylphenyl)-2,2-dimethyl-3-(8-methyl-3-(trifluoromethyl)-[1,2,4]triazolo[4,3-a]pyridin-7-yl)propanoic Acid] the same measures were < 1 nM and 96.9 nM.
In the same order, the values of `Cc1ccc(C(CC(=O)O)c2ccn3c(C(F)F)nnc3c2C)cc1CN1CC2(CC2)Oc2ncccc2S1(=O)=O` (stereo not shown) [Example 472, 3-(3-(Difluoromethyl)-8-methyl-[1,2,4]triazolo[4,3-a]pyridin-7-yl)-3-(3-((1′,1′-dioxidospiro[cyclopropane-1,4′-pyrido[2,3-b][1,4,5]oxathiazepin]-2′(3′H)-yl)methyl)-4-methylphenyl)propanoic Acid] are < 1 nM and 245 nM.
In the same order, the values of `Cc1ccc([C@@H](CC(=O)O)c2ccn3c(C(F)(F)F)nnc3c2C)nc1CN1CC2(CC2)Oc2ncc(F)cc2S1(=O)=O` (single isomer, unassigned) [Example 509, (*S)-3-(6-((8′-Fluoro-1′,1′-dioxidospiro[cyclopropane-1,4′-pyrido[2,3-b][1,4,5]oxathiazepin]-2′(3′H)-yl)methyl)-5-methylpyridin-2-yl)-3-(8-methyl-3-(trifluoromethyl)-[1,2,4]triazolo[4,3-a]pyridin-7-yl)propanoic Acid] are < 1 nM and 70.4 nM.
`CCn1nnc2c(C)c([C@@H](c3ccc(C)c(CN4CC5(CCOCC5)Oc5ncccc5S4(=O)=O)n3)C(C)(C)C(=O)O)ccc21` (single isomer, unassigned) [Example 556, (*R)-3-(6-((1′,1′-Dioxido-2,3,5,6-tetrahydrospiro[pyran-4,4′-pyrido[2,3-b][1,4,5]oxathiazepin]-2′(3′H)-yl)methyl)-5-methylpyridin-2-yl)-3-(1-ethyl-4-methyl-1H-benzo[d][1,2,3]triazol-5-yl)-2,2-dimethylpropanoic Acid]: the equilibrium dissociation constant (Kd) in experiment [1] worked out at 4940 nM. The molecule also gave an EC50 in experiment [2] of 1750 nM.
In the same order, the values of `Cc1ccc(C(CC(=O)O)c2ccn3c(C(F)F)nnc3c2C)cc1CN1CC2(CC2)Oc2ncc(F)cc2S1(=O)=O` (stereo not shown) [Example 526, 3-(3-(Difluoromethyl)-8-methyl-[1,2,4]triazolo[4,3-a]pyridin-7-yl)-3-(3-((8′-fluoro-1′,1′-dioxidospiro[cyclopropane-1,4′-pyrido[2,3-b][1,4,5]oxathiazepin]-2′(3′H)-yl)methyl)-4-methylphenyl)propanoic Acid] are < 1 nM and 60.1 nM.
In the case of `CCc1nnc2c(C)c([C@@H](CC(=O)O)c3ccc(C)c(CN4C[C@H]5CCCN5c5ccccc5S4(=O)=O)c3)ccn12` (single isomer, unassigned) [Example 279, (*S)-3-(3-(((R)-5,5-Dioxido-7a,8,9,10-tetrahydrobenzo[f]pyrrolo[2,1-d][1,2,5]thiadiazepin-6(7H)-yl)methyl)-4-methylphenyl)-3-(3-ethyl-8-methyl-[1,2,4]triazolo[4,3-a]pyridin-7-yl)propanoic Acid], the Kd in experiment [1] was < 1 nM. In experiment [2], this molecule registered an EC50 of 235 nM.
In the same order, the values of `Cc1cnc2c(c1)S(=O)(=O)N(Cc1cc([C@H](CC(=O)O)c3ccn4c(C(F)(F)F)nnc4c3C)ccc1C)CC1(CCOCC1)O2` (single isomer, unassigned) [Example 208, (*S)-3-(4-Methyl-3-((8′-methyl-1′,1′-dioxido-2,3,5,6-tetrahydrospiro[pyran-4,4′-pyrido[2,3-b][[,4,5]oxathiazepin]-2′(3′H)-yl)methyl)phenyl)-3-(8-methyl-3-(trifluoromethyl)-[1,2,4]triazolo[4,3-a]pyridin-7-yl)propanoic Acid] are < 1 nM and 19 nM.
In the same order, the values of `Cc1ccc([C@@H](CC(=O)O)c2cc(OC(F)F)c3c(c2)nnn3C)cc1CN1C[C@H]2CCCCN2c2ncccc2S1(=O)=O` (single isomer, unassigned) [Example 3, (*R)-3-(7-(Difluoromethoxy)-1-methyl-1H-benzo[d][1,2,3]triazol-5-yl)-3-(3-(((*R)-5,5-dioxido-7,7a,8,9,10,11-hexahydro-6H-dipyrido[2,1-d:2′,3′-f][1,2,5]thiadiazepin-6-yl)methyl)-4-methylphenyl)propanoic Acid] are 0.041 nM and 35 nM.
`Cc1ccc([C@H](c2ccn3c(C(F)(F)F)nnc3c2C)C(C)(C)C(=O)O)cc1CN1CC2(CCOCC2)Oc2nc(OCCN3CCC(F)(F)CC3)ccc2S1(=O)=O` (single isomer, unassigned) [Example 360, (*R)-3-(3-((7′-(2-(4,4-Difluoropiperidin-1-yl)ethoxy)-1′,1′-dioxido-2,3,5,6-tetrahydrospiro[pyran-4,4′-pyrido[2,3-b][1,4,5]oxathiazepin]-2′(3′H)-yl)methyl)-4-methylphenyl)-2,2-dimethyl-3-(8-methyl-3-(trifluoromethyl)-[1,2,4]triazolo[4,3-a][pyridine-7-yl)propanoic Acid]: the dissociation constant Kd in experiment [1] was < 1 nM. In experiment [2], this molecule registered an EC50 of 9.3 nM.
In the same order, the values of `Cc1ccc([C@H](CC(=O)O)c2ccn3c(C(F)(F)F)nnc3c2C)nc1CN1C[C@@H]2CCCCN2c2ncc(F)cc2S1(=O)=O` (single isomer, unassigned) [Example 498, (*R)-3-(6-(((*S)-3-Fluoro-5,5-dioxido-7,7a,8,9,10,11-hexahydro-6H-dipyrido[2,1-d:2′,3′-f][1,2,5]thiadiazepin-6-yl)methyl)-5-methylpyridin-2-yl)-3-(8-methyl-3-(trifluoromethyl)-[1,2,4]triazolo[4,3-a]pyridin-7-yl)propanoic Acid] are < 1 nM and 14.7 nM.
As to `Cc1ccc(C(CC(=O)O)c2ccn3c(C(F)F)nnc3c2C)cc1CN1C[C@H]2CCCN2c2ncc(C#N)cc2S1(=O)=O` (stereo in doubt) [Example 539, 3-(3-(((*R)-3-Cyano-5,5-dioxido-7a,8,9,10-tetrahydropyrido[2,3-f]pyrrolo[2,1-d][1,2,5]thiadiazepin-6(7H)-yl)methyl)-4-methylphenyl)-3-(3-(difluoromethyl)-8-methyl-[1,2,4]triazolo[4,3-a]pyridin-7-yl)propanoic Acid], in experiment [1], the equilibrium dissociation constant (Kd) was < 1 nM. The same molecule displayed an EC50 in experiment [2] of 76 nM.
For `Cc1ccc(C(CC(=O)O)c2ccn3c(C(F)(F)F)nnc3c2C)nc1CN1CC2(CC2)Oc2ncc(F)cc2S1(=O)=O` (stereo not shown) [Example 508, 3-(6-((8′-Fluoro-1′,1′-dioxidospiro[cyclopropane-1,4′-pyrido[2,3-b][1,4,5]oxathiazepin]-2′(3′H)-yl)methyl)-5-methylpyridin-2-yl)-3-(8-methyl-3-(trifluoromethyl)-[1,2,4]triazolo[4,3-a]pyridin-7-yl)propanoic Acid] the same measures were < 1 nM and 92.7 nM.
For `Cc1ccc(C(CC(=O)O)c2cc(OC3CC3)c3c(c2)nnn3C)cc1CN1C[C@H]2CCCN2c2ncccc2S1(=O)=O` (stereo partly drawn) [Example 4, 3-(7-Cyclopropoxy-1-methyl-1H-benzo[d][1,2,3]triazol-5-yl)-3-(3-(((R)-5,5-dioxido-7a,8,9,10-tetrahydropyrido[2,3-f]pyrrolo[2,1-d][1,2,5]thiadiazepin-6(7H)-yl)methyl)-4-methylphenyl)propanoic acid], in experiment [1], the Kd came out at 0.24 nM. The response in experiment [2] was half-maximal at 79 nM (EC50).
